Source: US8092816B2, “Insecticidal compositions for control of general household pests” (priority 2004, dated 2012)
Read-outs that look alike come from different tables or passages of the source.

Experiments:
Red Imported Fire Ant [1] = assay: Example 16: red imported fire ant knockdown and mortality, bifenthrin and clothianidin; format: in vivo, Solenopsis invicta
Source text: (§1) The following examples further illustrate the present invention, but, of course, should not be construed as in any way limiting its scope. The examples set forth certain biological data illustrating the efficacy of the compositions of the present invention in controlling general household pests. Each example embodies a separate test wherein the pests were randomly selected from a population at a random age. As a result, from example to example, the ages of the pests can be very different. This age difference potentially translates to different baselines for each example. Therefore, data should only be compared within the example and not from example to example due to the differences in age of the pests from example to example. Unless otherwise indicated, all parts, percentages, and the like are by weight. The spray chamber used in the examples was approximately 76 inches tall, 73 inches long and 31 inches deep with an adjustable shelf (approximately 22 inches deep) and a movable spray nozzle. The spray chambers were calibrated to deliver a volume of approximately 1 gallon of liquid per 1000 square feet of area at about 14 pounds per square inch of pressure. A DeVilbiss hand held sprayer (Atomizer model 152) manufactured by DeVilbiss located in Glendale Heights, Ill. was used in testing house flies and mosquitoes. The DeVilbiss was used to apply approximately 3-5 milliliters of product at about 10 pounds per square inch.
(§2) The compositions of the present invention were tested for red imported fire ant activity in the following manner:
(§3) Test compositions made up of TALSTARONE® MULTI-INSECTICIDE and a 16% a.i. water dispersible granular of clothianidin in distilled water were prepared that provided appropriate rates of application of combinations of bifenthrin and clothianidin, as well as bifenthrin and clothianidin alone.
(§4) The spray chamber was then calibrated to deliver the treatment solution at the desired volume and pressure over the desired area on the chamber shelf. Spray chamber shelf height was adjusted to approximately 18 inches from the spray tip. The shelf was then covered with aluminum foil and the center of the shelf from front-to-back and end-to-end was determined. The red imported fire ants to be treated were collected and placed in screened 16 oz paper cups. The paper cups were placed onto the aluminum foil on the spray chamber shelf. The sprayer was activated and the test compound was applied to each paper cup interior. Red imported fire ant knockdown and mortality were measured.

Yellow Fever Mosquito = format: in vivo
Source text: as §1
The compositions of the present invention were tested for Yellow Fever Mosquito activity in the following manner:
as §3
A DeVilbiss hand held sprayer was used to deliver the treatment solution at the desired volume and pressure. The Yellow Fever Mosquitoes to be treated were collected and placed in screened 16 oz paper cups. The hand held sprayer was activated and the test compound was applied to each paper cup interior. Yellow Fever Mosquito knockdown and mortality were measured.

Red Imported Fire Ant [2] = assay: Example 6: red imported fire ant knockdown and mortality, bifenthrin and imidacloprid (higher rates); format: in vivo, Solenopsis invicta
Source text: as §1, §2
(§5) Test compositions made up of TALSTARONE® MULTI-INSECTICIDE and a wettable powder of imidacloprid (MERIT) in distilled water were prepared that provided appropriate rates of application of combinations of bifenthrin and imidacloprid, as well as bifenthrin and imidacloprid alone.
as §4, with “red imported file ants to” for “red imported fire ants to”

American cockroach = assay: Example 3: American cockroach knockdown and mortality, bifenthrin and imidacloprid; format: in vivo
Source text: as §1
The compositions of the present invention were tested for American cockroach activity in the following manner:
as §5
The spray chamber was then calibrated to deliver the treatment solution at the desired volume and pressure over the desired area on the chamber shelf. Spray chamber shelf height was adjusted to approximately 18 inches from the spray tip. The shelf was then covered with aluminum foil and the center of the shelf from front-to-back and end-to-end was determined. A desired number of 4.0″ sieve circles were marked on the aluminum foil with a permanent marker. The inside of a desired number of PVC rings were coated with a petroleum jelly/mineral oil mixture (1:2 ratio). The PVC rings were place on the sieve circles. 10 male American cockroaches were placed inside each PVC ring. The sprayer was activated and the test compound was applied to each PVC ring interior. American cockroach knockdown and mortality were measured.

Red Imported Fire Ant [3] = assay: Example 5: red imported fire ant knockdown and mortality, bifenthrin and imidacloprid; format: in vivo, Solenopsis invicta
Source text: as §1, §2, §5, §4

[4] = rate of appln. 10 PPM (0.001% by weight)
[5] = rate of appln. 50 PPM (0.005% by weight)

Cc1c(COC(=O)[C@@H]2[C@H](/C=C(\Cl)C(F)(F)F)C2(C)C)cccc1-c1ccccc1 (racemic) [A, 2-methylbiphenyl-3-ylmethyl (Z)-(1RS)-cis-3-(2-chloro-3,3,3-trifluoroprop-1-enyl)-2,2-dimethylcyclopropanecarboxylate]
Knockdown Rate @ 5 minute (Red Imported Fire Ant [1]; [4]): 30% | Knockdown Rate @ 10 minute (Red Imported Fire Ant [1]; [4]): 93% | Knockdown Rate @ 15 minute (Red Imported Fire Ant [1]; [4]): 95% | Knockdown Rate @ 30 minutes (Red Imported Fire Ant [1]; [4]): 100% | Mortality Rate @ 60 minutes (Red Imported Fire Ant [1]; [4]): 65% | Mortality Rate @ 120 minutes (Red Imported Fire Ant [1]; [4]): 100% | Mortality Rate @ 4 hours (Red Imported Fire Ant [1]; [4]): 100% | Knockdown Rate @ 5 minute (Red Imported Fire Ant [1]; [5]): 10% | Knockdown Rate @ 10 minute (Red Imported Fire Ant [1]; [5]): 70% | Knockdown Rate @ 15 minute (Red Imported Fire Ant [1]; [5]): 95% | Knockdown Rate @ 30 minutes (Red Imported Fire Ant [1]; [5]): 100% | Mortality Rate @ 60 minutes (Red Imported Fire Ant [1]; [5]): 100% | Mortality Rate @ 120 minutes (Red Imported Fire Ant [1]; [5]): 100% | Mortality Rate @ 4 hours (Red Imported Fire Ant [1]; [5]): 100% | Knockdown Rate @ 15 minute (Yellow Fever Mosquito; [4]): 27% | Knockdown Rate @ 30 minute (Yellow Fever Mosquito; [4]): 97% | Mortality Rate @ 45 minutes (Yellow Fever Mosquito; [4]): 100% | Mortality Rate @ 60 minutes (Yellow Fever Mosquito; [4]): 100% | Mortality Rate @ 120 minutes (Yellow Fever Mosquito; [4]): 100% | Mortality Rate @ 180 minute (Yellow Fever Mosquito; [4]): 100% | Mortality Rate @ 4 hours (Yellow Fever Mosquito; [4]): 100% | Mortality Rate @ 1 day (Yellow Fever Mosquito; [4]): 100% | Knockdown Rate @ 15 minute (Yellow Fever Mosquito; [5]): 90% | Knockdown Rate @ 30 minute (Yellow Fever Mosquito; [5]): 100% | Mortality Rate @ 45 minutes (Yellow Fever Mosquito; [5]): 100% | Mortality Rate @ 60 minutes (Yellow Fever Mosquito; [5]): 100% | Mortality Rate @ 120 minutes (Yellow Fever Mosquito; [5]): 100% | Mortality Rate @ 180 minute (Yellow Fever Mosquito; [5]): 100% | Mortality Rate @ 4 hours (Yellow Fever Mosquito; [5]): 100% | Mortality Rate @ 1 day (Yellow Fever Mosquito; [5]): 100% | Knockdown Rate @ 5 minute (Red Imported Fire Ant [2]; 200 PPM, 0.02% by weight): 0% | Knockdown Rate @ 10 minute (Red Imported Fire Ant [2]; 200 PPM, 0.02% by weight): 0% | Knockdown Rate @ 15 minute (Red Imported Fire Ant [2]; 200 PPM, 0.02% by weight): 70% | Knockdown Rate @ 30 minutes (Red Imported Fire Ant [2]; 200 PPM, 0.02% by weight): 88% | Mortality @ 120 minutes (Red Imported Fire Ant [2]; 200 PPM, 0.02% by weight): 100% | Mortality Rate @ 60 minutes (Red Imported Fire Ant [2]; 200 PPM, 0.02% by weight): 100% | Mortality Rate @ 4 hours (Red Imported Fire Ant [2]; 200 PPM, 0.02% by weight): 100% | Knockdown Rate @ 5 minute (Red Imported Fire Ant [2]; 600 PPM, 0.06% by weight): 0% | Knockdown Rate @ 10 minute (Red Imported Fire Ant [2]; 600 PPM, 0.06% by weight): 40% | Knockdown Rate @ 15 minute (Red Imported Fire Ant [2]; 600 PPM, 0.06% by weight): 88% | Knockdown Rate @ 30 minutes (Red Imported Fire Ant [2]; 600 PPM, 0.06% by weight): 100% | Mortality @ 120 minutes (Red Imported Fire Ant [2]; 600 PPM, 0.06% by weight): 100% | Mortality Rate @ 60 minutes (Red Imported Fire Ant [2]; 600 PPM, 0.06% by weight): 100% | Mortality Rate @ 4 hours (Red Imported Fire Ant [2]; 600 PPM, 0.06% by weight): 100% | Knockdown Rate @ 15 minute (American cockroach; 10 PPM, 0.001% by weight): 0% | Knockdown Rate @ 30 minute (American cockroach; 10 PPM, 0.001% by weight): 0% | Mortality Rate @ 60 minutes (American cockroach; 10 PPM, 0.001% by weight): 0% | Mortality Rate @ 120 minutes (American cockroach; 10 PPM, 0.001% by weight): 0% | Mortality Rate @ 4 hours (American cockroach; 10 PPM, 0.001% by weight): 5% | Mortality Rate @ 1 day (American cockroach; 10 PPM, 0.001% by weight): 15% | Mortality Rate @ 2 days (American cockroach; 10 PPM, 0.001% by weight): 25% | Knockdown Rate @ 15 minute (American cockroach; 50 PPM, 0.005% by weight): 0% | Knockdown Rate @ 30 minute (American cockroach; 50 PPM, 0.005% by weight): 0% | Mortality Rate @ 60 minutes (American cockroach; 50 PPM, 0.005% by weight): 5% | Mortality Rate @ 120 minutes (American cockroach; 50 PPM, 0.005% by weight): 5% | Mortality Rate @ 4 hours (American cockroach; 50 PPM, 0.005% by weight): 10% | Mortality Rate @ 1 day (American cockroach; 50 PPM, 0.005% by weight): 65% | Mortality Rate @ 2 days (American cockroach; 50 PPM, 0.005% by weight): 70% | Knockdown Rate @ 5 minute (Red Imported Fire Ant [3]; 10 PPM, 0.001% by weight): 30% | Knockdown Rate @ 10 minute (Red Imported Fire Ant [3]; 10 PPM, 0.001% by weight): 93% | Knockdown Rate @ 15 minute (Red Imported Fire Ant [3]; 10 PPM, 0.001% by weight): 95% | Knockdown Rate @ 30 minutes (Red Imported Fire Ant [3]; 10 PPM, 0.001% by weight): 100% | Mortality Rate @ 60 minutes (Red Imported Fire Ant [3]; 10 PPM, 0.001% by weight): 65% | Mortality Rate @ 120 minutes (Red Imported Fire Ant [3]; 10 PPM, 0.001% by weight): 100% | Mortality Rate @ 4 hours (Red Imported Fire Ant [3]; 10 PPM, 0.001% by weight): 100% | Mortality Rate @ 1 day (Red Imported Fire Ant [3]; 10 PPM, 0.001% by weight): 100% | Knockdown Rate @ 5 minute (Red Imported Fire Ant [3]; 50 PPM, 0.005% by weight): 10% | Knockdown Rate @ 10 minute (Red Imported Fire Ant [3]; 50 PPM, 0.005% by weight): 70% | Knockdown Rate @ 15 minute (Red Imported Fire Ant [3]; 50 PPM, 0.005% by weight): 95% | Knockdown Rate @ 30 minutes (Red Imported Fire Ant [3]; 50 PPM, 0.005% by weight): 100% | Mortality Rate @ 60 minutes (Red Imported Fire Ant [3]; 50 PPM, 0.005% by weight): 100% | Mortality Rate @ 120 minutes (Red Imported Fire Ant [3]; 50 PPM, 0.005% by weight): 100% | Mortality Rate @ 4 hours (Red Imported Fire Ant [3]; 50 PPM, 0.005% by weight): 100% | Mortality Rate @ 1 day (Red Imported Fire Ant [3]; 50 PPM, 0.005% by weight): 100%
